Test results from publication PMC4492764, “Evaluation of biomarkers for in vitro prediction of drug-induced nephrotoxicity: comparison of HK-2, immortalized human proximal tubule epithelial, and primary cultures of human proximal tubular cells” (Pharmacology Research & Perspectives, 2015).
Counter-ions that a name gives are not always drawn. Values belong to the molecule of their own block, whether it stands above or below them.

Key:
Format in all cases: cell-based, human
[1] = test system: M-CSF; experiment: M-CSF protein ELISA in HK-2 cells; set-up: key: +: statistically significant increase; −: no significant increase; details: protein levels in culture medium; 72 h time point
Procedure: (§1) Sandwich-ELISA experiments were conducted following the manufacturer's instructions with slight modifications. A 96-well microplate (MaxiSorp®, Nunc, Thermo Scientific, NSW, Australia) was coated with 100 μL of capture antibodies (diluted 1:200 in PBS) and incubated overnight. The plate was then washed twice with washing buffer (0.05% Tween 20 in PBS, pH 7.4) and blocked by adding 300 μL of blocking buffer (1% bovine serum albumin (BSA) in PBS) for 1 h at room temperature. After washing two times with PBS, 100 μL of samples (cell culture media or cell lysates) or standards were then added to each well and incubated for 2 h at room temperature. The biotinylated detection antibodies were then diluted in blocking buffer, added to each well and incubated for 2 h. Horseradish peroxidase (HRP)-labeled streptavidin (100 μL) was then added to bind to detection antibodies. To each well, 100 μL of substrate solution (1:1 mixture of H2O2 and tetramethylbenzidine) was added and incubated for 20 min before reaction termination with 50 μL of stop solution (2N H2SO4). The optical density of each well was measured at 450 nm using a POLARstar Omega plate reader (BMG Labtech). All assays were performed at least three times, with at least two technical replicates in each assay.

[2] = test system: M-CSF mRNA; experiment: M-CSF mRNA qRT-PCR in HK-2 cells; set-up: key to Upregulation of M-CSF HK-2 R: +: statistically significant increase; −: no significant increase; details: for Upregulation of M-CSF HK-2 R: mRNA levels, 72 h time point
Procedure: Hs00273334_m1), Lcn2 (NGAL; Hs01008571_m1), and Csf1 (M-CSF; Hs00174164_m1). All probes span an exon-exon junction. The real-time quantitative reverse transcription PCR (qRT-PCR) was performed in a 10 μl final reaction mixture using a ViiA 7TM system (Applied Biosystems®, Sydney, NSW, Australia) based on the following thermo cycling conditions: 10 min at 95°C for one cycle, 15 sec at 95°C, 60 sec at 60°C for 40 cycles. The ViiA 7TM software was used for data analysis with Hprt1 expression used for normalization. All assays were performed at least three times, with at least two technical replicates in each assay.

[3] = test system: KIM-1; experiment: KIM-1 protein ELISA in hRPTECs; set-up: key to Upregulation of KIM-1 hRPTECs P: +: statistically significant increase; −: no significant increase; details: protein levels in culture medium; 72 h time point
Procedure: as §1, with “HK-2 cells (ATCC CRL-2190; Manassas, VA) were maintained in DMEM/F12 (Life Technologies; Sydney, NSW, Australia) supplemented with 5 μg/mL insulin, 5 μg/mL transferrin, 5 ng/mL sodium selenite (ITS; Roche; […] (passage 2) and culture kits were purchased from Lonza. […] were maintained in Renal Epithelial Cell BulletKitTM (CC-3190, Lonza) at 37°C and 5% CO2 atmosphere. Cells were passaged to 96-well plates with a density of 4000 cells/well. After 24 h culture, compounds with different concentration series were added into each well and incubated for 4, 24, 48, and 72 h. KIM-1 (DY1750), NGAL (DY1757), and M-CSF (DY216) Duo-Set® ELISA kits were purchased from R&D systems (Minneapolis, MN). Sandwich-ELISA” for “Sandwich-ELISA”

[4] = test system: KIM-1 mRNA; experiment: KIM-1 mRNA qRT-PCR in HK-2 cells; set-up: key to Upregulation of KIM-1 HK-2 R: +: statistically significant increase; −: no significant increase; details: for Upregulation of KIM-1 HK-2 R: mRNA levels, 72 h time point
Procedure: HK-2 cells (ATCC CRL-2190; Manassas, VA) were maintained in DMEM/F12 (Life Technologies; Sydney, NSW, Australia) supplemented with 5 μg/mL insulin, 5 μg/mL transferrin, 5 ng/mL sodium selenite (ITS; Roche; […] (passage 2) and culture kits were purchased from Lonza. […] were maintained in Renal Epithelial Cell BulletKitTM (CC-3190, Lonza) at 37°C and 5% CO2 atmosphere. Cells were passaged to 96-well plates with a density of 4000 cells/well. After 24 h culture, compounds with different concentration series were added into each well and incubated for 4, 24, 48, and 72 h. HK-2 and […] were treated with compounds for 4, 24, 48, and 72 h, then the cells were lysed and the RNA reverse transcribed with the TaqMan® Gene Expression Cells-to-CTTM Kit (Life Technologies) according to the manufacturer's instructions. […] Hs00273334_m1), Lcn2 (NGAL; Hs01008571_m1), and Csf1 (M-CSF; Hs00174164_m1). All probes span an exon-exon junction. The real-time quantitative reverse transcription PCR (qRT-PCR) was performed in a 10 μl final reaction mixture using a ViiA 7TM system (Applied Biosystems®, Sydney, NSW, Australia) based on the following thermo cycling conditions: 10 min at 95°C for one cycle, 15 sec at 95°C, 60 sec at 60°C for 40 cycles. The ViiA 7TM software was used for data analysis with Hprt1 expression used for normalization. All assays were performed at least three times, with at least two technical replicates in each assay.

[5] = test system: M-CSF; experiment: M-CSF protein ELISA in hRPTECs; set-up: key: +: statistically significant increase; −: no significant increase; details: protein levels in culture medium; 72 h time point
Procedure: as §1

[6] = test system: hRPTECs; experiment: Resazurin cytotoxicity assay in hRPTECs
Procedure: For the MTT assay, the medium was then removed, the dried crystals were resuspended in 60 μL of Dimethyl sulfoxide (DMSO), and the absorbance was read at 570 nm. For the resazurin assay, the fluorescence intensity was read using a PolarStar Omega plate reader (BMG Labtech; Mornington VIC, Australia) at excitation/emission 560/590 nm. All assays were performed at least three times. […] La Jolla, CA). Both MTT and resazurin assays were performed three times, with two technical replicates in each assay.

Molecule: N.N.[Cl][Pt][Cl] [Cisplatin, cisplatin]
Upregulation of M-CSF HK-2 P [1]: − | M-CSF mRNA level in HK-2 cells ([2]; 72 h exposure, P < 0.005): clearly increased | Upregulation of M-CSF HK-2 R [2]: + | Upregulation of KIM-1 hRPTECs P [3]: + | KIM-1 mRNA transcription level in HK-2 cells ([4]; 72 h, P < 0.005): increased | Upregulation of KIM-1 HK-2 R [4]: + | Upregulation of M-CSF hRPTECs P [5]: +

Upregulation of KIM-1 hRPTECs P [3]: + | Upregulation of KIM-1 HK-2 R [4]: −
Molecule: CNC(C)C1CCC(N)C(OC2C(N)CC(N)C(OC3OCC(C)(O)C(NC)C3O)C2O)O1 (stereo not shown) [Gentamicin, gentamicin sulfate]
toxicity in resazurin assay at highest concentration tested ([6]; 72 h, highest concentrations gentamicin 1 mmol/L, CsA 50 μmol/L, cell type not given): no toxicity

Molecule: Colistin sulfate
Upregulation of M-CSF HK-2 P [1]: − | Upregulation of M-CSF HK-2 R [2]: − | Upregulation of KIM-1 hRPTECs P [3]: + | CC50 ([6]; 72 h incubation, Mean ± Standard deviation, n = 3): 177 ± 15 µM | Upregulation of KIM-1 HK-2 R [4]: − | Upregulation of M-CSF hRPTECs P [5]: −
